Assay results published in US7285566B2, “Resistance-repellent retroviral protease inhibitors” (priority 2002, dated 2007).

Tests used:
D30N mutant HIV protease = D30N mutant HIV protease (Human immunodeficiency virus type 1 group M subtype B, UniProt P03367, D530N); experiment: Effect of D30N protease mutation on inhibitor binding
[1] = tested on: highly cross-resistant clinical HIV-1 strains; experiment: In vitro activity against highly PI-resistant clinical HIV-1 strains from AIDS patients; type: cell-based; details: for potency against the multidrug resistant strains of HIV: multidrug resistant vs wild type strains
Procedure: The sensitivities of HIV-1LAI, HIV-1Ba-L, HIV-2EHO and the primary HIV-1 isolates against various drugs were determined as previously described with minor modifications (Shiraska et al., Proc. Natl. Acad. Sci. USA, 92, 2398-2402 (1995)).

HIV-1UIC-P62 = experiment: Sensitivity of compound 1-selected HIV-1 (passage 62) to PIs; type: cell-based; details: for sensitivity compared with the parental HIV-1NL4-3: HIV-1UIC-P62; for IC50 fold greater than that of HIV-1NL4-3: HIV-1UIC-P62 (passage 62 with 2 μM 1) vs parental HIV-1NL4-3

Row | Structure (SMILES) | effect of D30N mutation on binding (D30N mutant HIV protease) | potency against the multidrug resistant strains of HIV [1] | sensitivity compared with the parental HIV-1NL4-3 (HIV-1UIC-P62) | level of resistance of the clinical strains ([1]; compared to wild-type clinical strain HIV-1ERS104pre) | IC50 fold greater than that of HIV-1NL4-3 (HIV-1UIC-P62)
1 | COc1ccc(S(=O)(=O)N(CC(C)C)C[C@@H](O)[C@H](Cc2ccccc2)NC(=O)O[C@H]2CO[C@H]3OCC[C@H]32)cc1 [Compound 1] | no effect |  |  |  | 
2 | CC(C)CN(C[C@@H](O)[C@H](Cc1ccccc1)NC(=O)O[C@H]1CCOC1)S(=O)(=O)c1ccc(N)cc1 [Compound 2, Amprenavir] |  | dramatically less potent |  |  | 
3 | CC(C)(C)NC(=O)[C@@H]1C[C@@H]2CCCC[C@@H]2CN1C[C@@H](O)[C@H](Cc1ccccc1)NC(=O)[C@H](CC(N)=O)NC(=O)c1ccc2ccccc2n1 [Compound 4, Saquinavir] |  | dramatically less potent | as sensitive | 3-31 fold | 
4 | CC(C)c1nc(CN(C)C(=O)N[C@H](C(=O)N[C@@H](Cc2ccccc2)C[C@H](O)[C@H](Cc2ccccc2)NC(=O)OCc2cncs2)C(C)C)cs1 [Compound 5, Ritonavir] |  | dramatically less potent | as sensitive |  | 
5 | CC(C)(C)NC(=O)[C@@H]1CN(Cc2cccnc2)CCN1C[C@@H](O)C[C@@H](Cc1ccccc1)C(=O)N[C@H]1c2ccccc2C[C@H]1O [Compound 6, Indinavir] |  | dramatically less potent |  |  | 7 fold
6 | Cc1c(O)cccc1C(=O)N[C@@H](CSc1ccccc1)[C@H](O)CN1C[C@H]2CCCC[C@H]2C[C@H]1C(=O)NC(C)(C)C [Compound 7, Nelfinavir] |  | dramatically less potent |  |  | 5 fold
